Experimental data: patent US20220332799A1, “HERV INHIBITORS FOR USE IN TREATING TAUOPATHIES” (Deutsches Zentrum Für Neurodegenerative Erkrankungen E.V. …, priority 2019, published 2022)
Entries after “also recorded” stand apart in the source; their conditions may differ.

Legend:
Assay type in all cases: cell-based, human
[1] = system: HERV-W Env (Syncytin-1) mRNA; test: Quantitative real-time PCR of Syncytin-1 in MCF-7 cells; settings: MCF-7 Tau-GFPAD cells, 2 μM for 4 d; vs DMSO
Procedure: FIG. 14: Human endogenous retroviruses contribute to the spreading of protein aggregates. • a. Experimental workflow. A human breast cancer cell line MCF-7 (4) was engineered to stably express Tau-GFP and induced to propagate Tau aggregates by exposure to Alzheimer's disease brain homogenate (AD). A single cell clone was subsequently isolated and used in the experiment (MCF-7 Tau-GFPAD). This donor clone was treated with 2 μM 5-Aza-2-deoxycytidine (Aza) for 4 d to de-repress HERV expression. Pretreated donor cells were cocultured with HEK-Tau-FRsol cells. • b. […] Statistics: Unpaired Student's t-test (n=3). • c. Quantitative analysis of recipient cells with induced Tau-FR aggregates following coculture with DMSO-treated or Aza-treated donor cells. Statistics: Unpaired Student's t-test (n=6). • d. […] Recipients were subsequently cocultured with transduced donors that had been passaged at least 5 times post transduction. • e. shRNA-mediated downregulation of Syncytin-1 mRNA in MCF-7 Tau-GFPAD cells assessed by quantitative real-time PCR. […] Quantitative analysis of recipient cells with induced Tau-FR aggregates following coculture with donors with decreased HERV-W Syncytin-1 expression. […]
Total RNAs from cell pellets were isolated using the RNeasy Mini Kit or RNeasy Lipid Tissue Mini Kit (Qiagen). RNA concentration and quality were determined with Agilent 2100 Bioanalyzer System. […]

[2] = system: HEK Tau-FusionRed^sol cells expressing murine XPR1-HA; test: Tau aggregate induction in recipient cells by EVs from N2a s2E Tau-GFP^CBD donor cells; settings: EVs from treated donors; recipients cultured in drug-containing medium, 3 d
Procedure: To examine this effect on Tau aggregate spreading, an N2a s2E cell clone stably propagating aggregated Tau-GFP^CBD was produced (FIG. 11a). […]. Cells and EVs were analyzed for the presence of aggregated Tau-GFP. Pronase-resistant Tau-GFP was found in both cell lysate and EVs (FIG. 2q). To inhibit MuERV gene product maturation, donor cells were treated with Amprenavir for three days. Donor cells and donor cell-derived EVs were subsequently exposed for three days to recipient HEK cells expressing soluble Tau-FusionRed and the murine XPR1 receptor variant required for MuERV Env interaction. Due to this long incubation time, the coculture and EV induction assays were performed in the presence of Amprenavir (FIG. 11b). […]
Recipient cells were cultured on CellCarrier-96 plates or 384 black microplates (PerkinElmer) at appropriate cell numbers for 1 h, and then treated with 5-10 μl of prepared samples (isolated EVs or recombinant NM fibrils). […] On average, a total of 3-4×10^4 cells per well and at least 3 wells per treatment were analyzed.
(§1) The treatment of cells with Amprenavir (10 μM; Santa Cruz) and DMSO was performed for 72 h in EV-depleted medium in T175 flasks. Afterwards, the total numbers of viable cells and the viability upon drug treatment were determined using the Vi-VELL™ XR Cell Viability Analyzer (Beckman Coulter). […]

[3] = system: HEK Tau-FusionRed^sol cells; test: Tau-FusionRed aggregate induction by coculture with T47D Tau-GFP^AD or Tau-GFP^FTLD donor cells; settings: T47D Tau-GFP^AD or Tau-GFP^FTLD donors pretreated one day with 10 μM, coculture 3 d in presence of drug; vs DMSO
Procedure: FIG. 4: Human endogenous retrovirus proteins potentiate intercellular Tau aggregate induction. • a. Workflow of Amprenavir treatment. […]. Two days later, these donor cells were incubated with 10 μM Amprenavir or solvent control DMSO for 1 d. Subsequently, donor cells with NM-GFP^agg, Tau-GFP^FTLD or Tau-GFP^AD aggregates were cocultured with recipient HEK NM-mCherry^sol or HEK Tau-FusionRed^sol cells, respectively, for 1 d (NM) or 3 d (Tau) in the presence of 10 μM Amprenavir or DMSO. • b. […] Percentage of recipient HEK NM-Cherry cells that harbor induced NM-mCherry aggregates. • c., d. […] Percentage of HEK Tau-FusionRed cells that harbor Tau-FusionRed^agg after coculture with T47D Tau-GFP^agg donor cell lines (n=6, ***, p<0.001; unpaired student t test).
To examine the effect of HERV-K proteins on Tau aggregate spreading, a T47D donor cell line stably expressing Tau-GFP^sol was generated. […]
as §1

Row | Compound | Syncytin-1 mRNA levels [1] | Tau-FusionRed aggregate induction by EVs [2] | Tau aggregate induction in recipient cells [3]
1 | Nc1ncn([C@H]2C[C@H](O)[C@@H](CO)O2)c(=O)n1 [Decitabine, 5-aza-2′-deoxycytidine] | enhanced Syncytin-1 mRNA levels; also recorded: increased HERV-W Env (Syncytin-1) expression | – | –
2 | CC(C)CN(C[C@@H](O)[C@H](Cc1ccccc1)NC(=O)O[C@H]1CCOC1)S(=O)(=O)c1ccc(N)cc1 [Amprenavir] | – | also decreased Tau-FusionRed aggregate induction in murine XPR1 expressing recipient cells | significant decrease in Tau aggregate induction in recipient cells; also recorded: impairs Tau-FusionRed aggregate induction
